Data set [1] concerns Influenza virus A/WSN/33 (H1N1). Nature of the data set: microbe, parasite or virus in culture. It is filed as cell-based. The note with it: 72 h.
A further data set is described as follows: in vitro. The conditions noted are these: bovine; for CC50 at 72 h: mdbk cells.
Setting [2] is: viral strain: Influenza virus A/WSN/33 (H1N1), Cell: MDBK, […], 3 days, read-out: IC50.

≈ marks a conversion by molar mass, not a printed value. Like-named read-outs stand apart in the source and are kept apart here.

In the case of `C[C@H]1CC[C@H]2C(C)(C)[C@@H](OC(=O)c3cnccn3)CC[C@]23Oc2c(c(O)cc4c2CNC4=O)C[C@]13C` [Compound (35b), (6aR, 7S, 9aS, 11S, 13aS)-2,3,6,6a, 7,8,9,9a, 10, 11, 12, 13-dodecahydro-5-hydroxy-6a, 7, 10, 10-tetramethyl-3-oxo-11-[(2-pyrazyl)carbonyloxy]-1H-benzo[8,8a][1]benzopyrano[2,3-e]isoindole], the IC50 in data set [1] (setting [2]) is 0.002 to 0.004 µg/mL (≈ 0.00407 to 0.00814 µM). Moreover, in the data set “in vitro”, the CC50 at 72 h worked out at 10 µg/mL (≈ 20.3 µM).

For the molecule `COC1NC(=O)c2cc(O)c3c(c21)O[C@@]12CC[C@H](O)C(C)(C)[C@@H]1CC[C@H](C)[C@@]2(C)C3` (stereo partly drawn) [Compound (30b), (6aR, 7S, 9aS, 11S, 13aS)-2,3,6,6a, 7,8,9,9a, 10, 11, 12, 13-dodecahydro-5, 11-dihydroxy-1-methoxy-6a, 7, 10, 10-tetramethyl-3-oxo-1H-benzo[8,8a][1]benzopyrano[2,3-e]isoindole], the IC50 in data set [1] (setting [2]) stood at 0.04 µg/mL (≈ 0.0963 µM). In “in vitro”, this molecule showed a CC50 of 20 µg/mL (≈ 48.1 µM).

Turning to `CCCOC1NC(=O)c2cc(O)c3c(c21)O[C@@]12CC[C@H](O)C(C)(C)[C@@H]1CC[C@H](C)[C@@]2(C)C3` (stereo partly drawn) [Compound (30c), (6aR, 7S, 9aS, 11S, 13aS)-2,3,6,6a, 7,8,9,9a, 10, 11, 12, 13-dodecahydro-5, 11-dihydroxy-1-propoxy-6a, 7, 10, 10-tetramethyl-3-oxo-1H-benzo[8,8a][1]benzopyrano[2,3-e]isoindole], the IC50 in data set [1] (setting [2]) worked out at 0.04 µg/mL (≈ 0.0902 µM). In the data set “in vitro”, this molecule had a CC50 of 20 µg/mL (≈ 45.1 µM).

In the case of `C[C@H]1CC[C@H]2C(C)(C)[C@@H](OC(=O)c3cccnc3)CC[C@]23Oc2c(c(O)cc4c2CNC4=O)C[C@]13C` [Compound (35a), (6aR, 7S, 9aS, 11S, 13aS)-2,3,6,6a, 7,8,9,9a, 10, 11, 12, 13-dodecahydro-5-hydroxy-6a, 7, 10, 10-tetramethyl-3-oxo-11-[(3-pyridyl)carbonyloxy]-1H-benzo[8,8a][1]benzopyrano[2,3-e]isoindole], in data set [1] (setting [2]), the IC50 was 0.001 µg/mL (≈ 0.00204 µM). The CC50 in “in vitro” amounted to 10 µg/mL (≈ 20.4 µM).

Take `C[C@H]1CC[C@H]2C(C)(C)[C@@H](O)CC[C@]23Oc2c(c(OP(=O)(O)O)cc4c2CNC4=O)C[C@]13C.[Na]` [Compound (59a), (6aR, 7S, 9aS, 11S, 13aS)-2,3,6,6a, 7,8,9,9a, 10, 11, 12, 13-dodecahydro-11-hydroxy-5-dihydroxyphosphinyloxy-6a, 7,10, 10-tetramethyl-3-oxo-1H-benzo[8,8a][1]benzopyrano[2,3-e]isoindole monosodium salt]: the IC50 in data set [1] (H1N1|WSN, MDBK) was 0.001 µg/mL. The CC50 in “in vitro” is more than 10 µg/mL.

For the molecule `C[C@H]1CC[C@H]2C(C)(C)[C@@H](O)CC[C@]23Oc2c(c(O)cc4c2C(=O)N(C)C4=O)C[C@]13C` [Compound (32b), (6aR, 7S, 9aS, 11S, 13aS)-2,3,6,6a, 7,8,9,9a, 10, 11, 12, 13-dodecahydro-5, 11-dihydroxy-2,6a, 7, 10, 10-pentamethyl-13-dioxo-1H-benzo[8,8a][1]benzopyrano[2,3-e]isoindole], the IC50 in data set [1] (setting [2]) turned out to be 0.04 µg/mL (≈ 0.0967 µM). This molecule yielded a CC50 at 72 h in the data set “in vitro” of 10 µg/mL (≈ 24.2 µM).

As for `C[C@H]1NC(=O)c2cc(O)c3c(c21)O[C@@]12CC[C@H](O)C(C)(C)[C@@H]1CC[C@H](C)[C@@]2(C)C3` [Compound (67b), (1R, 6aR, 7S, 9aS, 11S, 13aS)-2,3,6,6a, 7,8,9,9a, 10, 11, 12, 13-dodecahydro-5, 11-dihydroxy-1,6a, 7, 10, 10-pentamethyl-3-oxo-1H-benzo[8,8a][1]benzopyrano[2,3-e]isoindole], in data set [1] (setting [2]), the 50% inhibitory concentration (IC50) was found to be 0.032 µg/mL (≈ 0.0801 µM). The molecule further showed a CC50 in “in vitro” of 25 to 50 µg/mL (≈ 62.6 to 125 µM).

Turning to `C[C@H]1CC[C@H]2C(C)(C)[C@H](O)CC[C@]23Oc2c(c(OP(=O)(O)O)cc4c2CNC4=O)C[C@]13C.[Na]` [Compound (59b), (6a R, 7 S, 9a S, 11 R, 13a S)-2,3,6,6a, 7,8,9,9a, 10, 11, 12, 13-dodecahydro-11-hydroxy-5-dihydroxyphosphinyloxy-6a, 7, 10,10-tetramethyl-3-oxo-1H-benzo[8,8a][1]benzopyrano[2,3-e]isoindole monosodium salt], in data set [1] (H1N1|WSN, MDBK), the IC50 came to 0.001 µg/mL. Besides, in the data set “in vitro”, the CC50 is more than 10 µg/mL.

Consider `C[C@H]1CC[C@H]2C(C)(C)CCC[C@]23Oc2c(c(O)cc4c2CNC4=O)C[C@]13C` [Compound (42), (6a R, 7 S, 9a S, 13a S)-2,3,6,6a, 7,8,9,9a, 10, 11, 12, 13-dodecahydro-5-hydroxy-6a, 7, 10, 10-tetramethyl-3-oxo-1H-benzo [8,8a] [1] benzopyrano[2,3-e]isoindole], for which the IC50 in data set [1] (setting [2]) stood at 0.002 µg/mL (≈ 0.00541 µM). For the same molecule, the CC50 in the data set “in vitro” amounted to 5 µg/mL (≈ 13.5 µM).

Take `CON=C1CC[C@@]23Oc4c(c(O)cc5c4CNC5=O)C[C@]2(C)[C@@H](C)CC[C@H]3C1(C)C` [Compound (51b), (6a R, 7 S, 9a S, 13a S)-2,3,6,6a, 7,8,9,9a, 10, 11, 12, 13-dodecahydro-5-hydroxy-11-methoxyimino-6a, 7, 10, 10-tetramethyl-3-oxo-1H-benzo[8,8a][1]benzopyrano[2,3-e]isoindole]: the IC50 in data set [1] (setting [2]) was determined as 0.003 µg/mL (≈ 0.00727 µM). This molecule displayed a CC50 in the data set “in vitro” of 5 to 10 µg/mL (≈ 12.1 to 24.2 µM).

Consider `C[C@H]1CC[C@H]2C(C)(C)[C@@H](O)CC[C@]23Oc2c(c(O)cc4c2CN(S(C)(=O)=O)C4=O)C[C@]13C` [Compound (28e), (6aR, 7S, 9aS, 11S, 13aS)-2,3,6,6a, 7,8,9,9a, 10, 11, 12, 13-dodecahydro-5, 11-dihydroxy-6a, 7, 10, 10-tetramethyl-2-methanesulfonyl-3-oxo-1H-benzo[8,8a][1]benzopyrano[2,3-e]isoindole], for which the IC50 in data set [1] (setting [2]) came out at 0.03 µg/mL (≈ 0.0647 µM). For the same molecule, in the data set “in vitro”, the CC50 was more than 10 µg/mL.

With `C[C@@H]1NC(=O)c2cc(O)c3c(c21)O[C@@]12CC[C@H](O)C(C)(C)[C@@H]1CC[C@H](C)[C@@]2(C)C3` [Compound (67a), (1S, 6aR, 7S, 9aS, 11S, 13aS)-2,3,6,6a, 7,8,9,9a, 10, 11, 12, 13-dodecahydro-5, 11-dihydroxy-1,6a, 7, 10, 10-pentamethyl-3-oxo-1H-benzo[8,8a][1]benzopyrano[2,3-e]isoindole], the IC50 in data set [1] (setting [2]) was found to be 0.016 µg/mL (≈ 0.04 µM). The molecule also came in with a CC50 in “in vitro” of 6.3 to 12.5 µg/mL (≈ 15.8 to 31.3 µM).

Turning to `C[C@H]1CC[C@H]2C(C)(C)[C@H](OS(=O)(=O)c3ccccc3)CC[C@]23Oc2c(c(O)cc4c2CNC4=O)C[C@]13C` [Compound (13d), (6a R, 7 S, 9a S, 11 R, 13a S)-2,3,6,6a, 7,8,9,9a, 10, 11, 12, 13-dodecahydro-5-hydroxy-6a, 7, 10, 10-tetramethyl-3-oxo-11-phenylsulfonyloxy-1H-benzo[8,8a][1]benzopyrano[2,3-e]isoindole], the IC50 in data set [1] (setting [2]) was in the range of 0.02 to 0.06 µg/mL (≈ 0.038 to 0.114 µM). This molecule also came in with a CC50 in the data set “in vitro” of 10 µg/mL (≈ 19 µM).

Take `C[C@H]1CC[C@H]2C(C)(C)[C@@H](O)CC[C@]23Oc2c(c(O)cc4c2CN(C)C4=O)C[C@]13C` [Compound (28a), (6aR, 7S, 9aS, 11S, 13aS)-2,3,6,6a, 7,8,9,9a, 10, 11, 12, 13-dodecahydro-5, 11-dihydroxy-2,6a, 7, 10, 10-pentamethyl-3-oxo-1H-benzo[8,8a][1]benzopyrano[2,3-e]isoindole]: the IC50 in data set [1] (setting [2]) worked out at 0.02 µg/mL (≈ 0.0501 µM). In the data set “in vitro”, the CC50 is 10 to 20 µg/mL (≈ 25 to 50.1 µM).

For `CC(=O)N1Cc2c(cc(O)c3c2O[C@@]24CC[C@H](O)C(C)(C)[C@@H]2CC[C@H](C)[C@@]4(C)C3)C1=O` [Compound (28f), (6aR, 7S, 9aS, 115, 13aS)-2-acetyl-2,3,6,6a, 7,8,9,9a, 10, 11, 12, 13-dodecahydro-5,11-dihydroxy-6a, 7, 10, 10-tetramethyl-3-oxo-1H-benzo[8,8a][1]benzopyrano[2,3-e]isoindole], in data set [1] (setting [2]), the IC50 amounted to 0.02 µg/mL (≈ 0.0468 µM). This molecule also displayed a CC50 at 72 h in “in vitro” of more than 10 µg/mL.

A word on the IC50: it is the concentration at which inhibition is half-maximal.

(Values after patent publication EP0855398B1, “SESQUITERPENE DERIVATIVES HAVING ANTIVIRAL ACTIVITY” (SHIONOGI & CO., LTD., priority 1995, dated 1997).)
